According to patent publication US20030207941A1, “Method of treating vascular endothelial growth factor mediated vascular disorders” (priority 2002, published 2003):

Experiments:
[1] = system: BRMEC (Bovine Retinal Microvascular Endothelial Cell); test: VEGF-induced BRMEC proliferation, modified MTT assay; assay type: cell-based
Procedure: VEGF-induced BRMEC proliferation was measured using a modified MTT assay, BRMEC were plated at 3×10^3 onto a fibronectin/hyaluronic acid matrix in 96-well plates (Coming). Growth medium was added for two days, followed by serum free medium (SFM) overnight, then by test medium containing 0 or 25 ng/ml VEGF in 100 μl of SFM. After 24 hours at 37° C./5%CO2, 25 μl of MTT (3-(4,5-dimethylthiazol-2-yl)-2,5-diphenyl tetrazolium bromide) was added to each well and incubated for 4 hours. 100 μl of lysis buffer (20%SDS in 50:50 DMF:H2O+2.0% acetic acid and 0.05%HCl) was then added to each well, and the plates were incubated overnight at 37° C. and read (SPECTRAmax 190, Molecular Devices; Sunnyvale, Calif.) at 570 nm. For experiments utilizing AL06295, 25 ng/ml VEGF was combined with the compound at 0.1, 0.3, 1.0 or 3 μM.

[2] = system: BRMEC (Bovine Retinal Microvascular Endothelial Cell); test: VEGF-induced BRMEC capillary tube formation; assay type: cell-based
Procedure: A mixture of 8 vol of Vitrogen 100 (Cohesion; Palo Alto, Calif.), 1 vol. of 0.2N NaOH, and 1 vol. of 10× RPMI-1640 medium containing 5 μg/ml fibronectin and 5 μg/ml laminin was prepared and 400 μl was added to each well of a 24-well plate. After incubating for 3 hrs at 37° C. to solidify the gel, 10^4 BRMEC were added to each well and incubated in growth medium for 3 days. Then the medium was carefully aspirated and 200 μl of the gel solution was layered on top of the cells and incubated at 37° C. for 1 hr. Following addition of growth medium for 24 hrs, 2 ml of test medium containing serum-free (SF) medium plus VEGF or SF medium plus VEGF and AL06295A were added to each well. The gels were assessed 24 hrs later.
For quantitative analysis, six fields per treatment group were chosen from areas containing tubes; seven wells were used for each treatment. The lengths of the tubes were measured in digitized images, and the data are expressed in FIG. 2 as the total length per field of view in μm.

COX-1 = COX-1 (Homo sapiens, UniProt P23219); settings: known; cited from earlier work
Sequence of COX-1 (P23219 24-599): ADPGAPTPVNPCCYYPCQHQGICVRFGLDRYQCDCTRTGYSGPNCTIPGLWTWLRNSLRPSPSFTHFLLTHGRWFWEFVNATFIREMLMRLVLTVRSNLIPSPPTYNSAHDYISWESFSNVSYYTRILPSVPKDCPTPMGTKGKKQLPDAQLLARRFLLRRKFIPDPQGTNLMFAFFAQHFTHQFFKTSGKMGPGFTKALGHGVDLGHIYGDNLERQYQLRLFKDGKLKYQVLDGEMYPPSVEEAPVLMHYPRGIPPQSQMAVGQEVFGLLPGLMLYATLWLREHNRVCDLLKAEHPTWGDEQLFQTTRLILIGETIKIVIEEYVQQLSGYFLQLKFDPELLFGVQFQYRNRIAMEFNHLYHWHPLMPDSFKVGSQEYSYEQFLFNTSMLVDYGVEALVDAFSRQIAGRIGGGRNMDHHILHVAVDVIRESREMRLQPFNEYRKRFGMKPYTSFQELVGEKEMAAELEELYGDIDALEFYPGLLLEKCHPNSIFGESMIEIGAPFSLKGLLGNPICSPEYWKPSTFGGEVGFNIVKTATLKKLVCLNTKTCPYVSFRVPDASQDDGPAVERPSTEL

COX-2 = target: T1, COX-2 (Homo sapiens, UniProt P35354); settings: known; cited from earlier work
T1 sequence (P35354 18-604): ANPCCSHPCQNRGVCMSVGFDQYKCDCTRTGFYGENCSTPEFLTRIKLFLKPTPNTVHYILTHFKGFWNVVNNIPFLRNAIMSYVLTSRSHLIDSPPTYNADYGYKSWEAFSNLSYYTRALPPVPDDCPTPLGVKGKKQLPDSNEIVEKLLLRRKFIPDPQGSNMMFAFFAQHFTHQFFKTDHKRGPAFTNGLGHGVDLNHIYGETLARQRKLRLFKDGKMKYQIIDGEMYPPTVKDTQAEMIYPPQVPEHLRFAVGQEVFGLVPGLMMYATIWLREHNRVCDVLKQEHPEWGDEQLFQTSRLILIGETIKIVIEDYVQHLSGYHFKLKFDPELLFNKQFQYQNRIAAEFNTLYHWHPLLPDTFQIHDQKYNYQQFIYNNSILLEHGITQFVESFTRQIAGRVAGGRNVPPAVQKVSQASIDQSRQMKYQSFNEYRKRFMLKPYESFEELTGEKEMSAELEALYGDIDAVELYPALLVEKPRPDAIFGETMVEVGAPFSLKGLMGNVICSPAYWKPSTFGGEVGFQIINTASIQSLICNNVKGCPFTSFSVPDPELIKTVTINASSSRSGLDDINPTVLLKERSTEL

choroidal NV = choroidal NV in a mouse model, topical administration; assay type: in vivo; settings: previous findings
[3] = dose-response fashion, bovine retinal microvascular endothelial cell assay

Molecule | VEGF induced BRMEC proliferation ([1]; 1 and 3 μM doses, 25 ng/ml VEGF, 24 hours, FIG. 1) | VEGF-induced cell proliferation [1, 3] | VEGF induced capillary tube formation in BRMECs (total tube length per field of view) ([2]; all doses, SF medium plus VEGF, assessed 24 hrs later, FIG. 2) | VEGF-induced capillary tube formation [2, 3] | activity of COX-1 enzyme (COX-1) | activity of COX-2 enzyme (COX-2) | choroidal NV (choroidal NV)
2-amino-3-benzoylbenzene acetic acid [amfenac] | significantly reduce | inhibit | significantly and potently inhibit | inhibit | potently inhibit | potently inhibit | –
NC(=O)Cc1cccc(C(=O)c2ccccc2)c1N [nepafenac] | – | – | – | – | – | – | inhibited
